From PMC6136360, “Novel group of tyrosyl-DNA-phosphodiesterase 1 inhibitors based on disaccharide nucleosides as drug prototypes for anti-cancer therapy” (Journal of Enzyme Inhibition and Medicinal Chemistry, 2018) come the findings set out here.

Molecules are shown by their SMILES.

The target of this assay is T1, TDP1 (Homo sapiens, UniProt Q9NUW8).
T1 construct: made in house; host or cells: E. coli
Nature of the assay: Real-time fluorescence detection of TDP1 activity, single-stranded FAM/BHQ biosensor. It counts as biochemical. Conditions: for Inhibitory effect on TDP1 activity (in words): single-stranded fluorescent biosensor, primary screening; for IC50: single-stranded fluorescent biosensor 50 nM, TDP1 1.5 nM, 26 °C, read-out: IC50 (half-maximal inhibitory concentration) of TDP1 activity; for Increase of efficiency of TDP1 inhibition by appending TBDPS at 5'-position: 37 compared to 36, 42 compared to 41, ratio of IC50. On the procedure: Conditions and details for our real-time detection of TDP1 activity using the single-stranded and hairpin fluorescent biosensors were reported in our previous work[47]. Briefly, the approach consists in fluorescence intensity measurement of the reaction of quencher removal from the fluorophore-quencher coupled DNA-oligonucleotide catalysed by TDP1 in the presence of inhibitor and in the absence of it (the control samples contained 1% DMSO). Reaction mixtures (200 µl) contained TDP1 buffer (50 mM Tris-HCl, pH 8.0, 50 mM NaCl, 7 mM β-mercaptoethanol), oligonucleotide (50 nM substrate of TDP1), testable inhibitor and purified TDP1 (1.5 nM). The reactions were incubated at a constant temperature of 26 °C in a POLARstar OPTIMA fluorimeter, BMG LABTECH, GmbH, to measure fluorescence every 55 s (Ex485/Em520 nm) during the linear phase (here data from 0 to 8 min). The average values of half maximal inhibitory concentration (IC50) were determined using an eleven-point concentration response curve in three independent experiments and calculated using MARS Data Analysis 2.0 (BMG LABTECH).
To discover inhibitors of TDP1 we recently developed original single-stranded and hairpin fluorophore–quencher coupled DNA-biosensors for real-time measurement of TDP1 cleavage activity. The single-stranded substrate is a 16-mer oligonucleotide containing both 5′-FAM fluorophore donor and a quenching 3′-BHQ moiety (Figure 1(A)). When the quencher is removed by TDP1, the fluorescence intensity increases and can be measured by fluorimeter (TDP1 catalysed reaction on biosensor is shown in Figure 3(A). Fluorescence intensity declines in the presence of inhibitor, the resulting curves of the dependence of TDP1 residual activity as a function of the concentration of inhibitors were obtained using 4-parameter logistic regression fit, which was used to calculate IC50 values[47]^,[58].
For primary screening, the effect of a large group of disaccharide nucleosides and their hydrophobic derivatives on human recombinant TDP1 activity has been evaluated by fluorescent method on a single-stranded substrate described above.

T1 sequence (Q9NUW8 whole entry): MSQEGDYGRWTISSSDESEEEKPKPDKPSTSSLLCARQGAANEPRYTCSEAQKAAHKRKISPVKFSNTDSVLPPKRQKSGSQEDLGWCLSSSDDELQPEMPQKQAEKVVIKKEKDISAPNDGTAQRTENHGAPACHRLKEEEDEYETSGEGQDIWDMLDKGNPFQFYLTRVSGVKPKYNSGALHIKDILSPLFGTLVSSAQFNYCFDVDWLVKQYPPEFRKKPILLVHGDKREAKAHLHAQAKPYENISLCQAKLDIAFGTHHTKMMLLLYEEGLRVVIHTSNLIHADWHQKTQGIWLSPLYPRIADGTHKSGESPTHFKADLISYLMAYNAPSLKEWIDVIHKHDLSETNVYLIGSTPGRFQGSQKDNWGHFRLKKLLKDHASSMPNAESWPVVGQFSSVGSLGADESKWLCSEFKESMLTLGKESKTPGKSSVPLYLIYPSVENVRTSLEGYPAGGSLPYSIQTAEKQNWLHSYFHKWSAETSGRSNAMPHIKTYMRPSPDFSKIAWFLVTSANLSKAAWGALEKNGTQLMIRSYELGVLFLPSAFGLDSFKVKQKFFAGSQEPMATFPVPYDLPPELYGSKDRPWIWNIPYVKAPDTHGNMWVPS

With `Nc1ncnc2c1ncn2[C@@H]1O[C@H](CO)[C@@H](O)[C@H]1O[C@@H]1O[C@H](CO)[C@@H](O)[C@H]1O` [Compound 1], the “Inhibitory effect on TDP1 activity (in words)” value (“Inhibitory effect” for short) is listed as “not inhibited”.
With `Nc1ccn([C@H]2C[C@H](O[C@@H]3O[C@H](CO)[C@@H](O)[C@H]3O)[C@@H](CO)O2)c(=O)n1` [Compound 35], the “Inhibitory effect” value is “not inhibited”.
For `Nc1ncnc2c1ncn2[C@H]1C[C@H](O)[C@@H](CO[C@@H]2O[C@H](CO)[C@@H](O)[C@H]2O)O1` [Compound 43], the “Inhibitory effect” value is “not inhibited”.
Regarding `O=c1ccn([C@H]2C[C@H](O)[C@@H](CO[C@@H]3O[C@H](CO)[C@@H](O)[C@H]3O)O2)c(=O)[nH]1` [Compound 47], the “Inhibitory effect” value is given as “weak inhibitory effect”.
Consider `O=C(Nc1ccn([C@@H]2O[C@H](CO)[C@@H](O)[C@H]2O[C@@H]2O[C@H](COC(=O)c3ccccc3)[C@@H](OC(=O)c3ccccc3)[C@H]2OC(=O)c2ccccc2)c(=O)n1)c1ccccc1` [Compound 13], for which the IC50 was 2600 ± 200 nM.
As for `Cc1cn([C@H]2C[C@H](O[C@@H]3OC[C@@H](O)[C@@H](O)[C@H]3O)[C@@H](CO)O2)c(=O)[nH]c1=O` [Compound 27], the “Inhibitory effect” value is “did not observe any inhibitory effect”.
`O=c1[nH]c(=O)n([C@H]2C[C@H](O[C@@H]3OC[C@@H](O)[C@@H](O)[C@H]3O)[C@@H](CO)O2)cc1I` [Compound 40]: the “Inhibitory effect” value is recorded as “did not observe any inhibitory effect”.
Regarding `Cc1cn([C@H]2C[C@H](O[C@@H]3O[C@H](COC(=O)c4ccccc4)[C@@H](OC(=O)c4ccccc4)[C@H]3OC(=O)c3ccccc3)[C@@H](CO[C@@H]3O[C@H](COC(=O)c4ccccc4)[C@@H](OC(=O)c4ccccc4)[C@H]3OC(=O)c3ccccc3)O2)c(=O)[nH]c1=O` [Compound 33], the IC50 came out at 1000 ± 100 nM.
Turning to `CC(=O)O[C@H]1[C@H](O[C@H]2C[C@H](n3cc(C)c(=O)[nH]c3=O)O[C@@H]2CO)OC[C@@H](OC(C)=O)[C@H]1OC(C)=O` [Compound 28], the “Inhibitory effect” value is reported as “did not observe any inhibitory effect”.
As to `Cc1cn([C@@H]2O[C@H](CO)[C@@H](O)[C@H]2O[C@@H]2O[C@H](CO)[C@@H](O)[C@H]2O)c(=O)[nH]c1=O` [Compound 5], the “Inhibitory effect” value is reported as “not inhibited”.
As to `Nc1nc2c(ncn2[C@@H]2O[C@H](CO)[C@@H](O)[C@H]2O[C@@H]2O[C@H](CO)[C@@H](O)[C@H]2O)c(=O)[nH]1` [Compound 8], the “Inhibitory effect” value is given as “not inhibited”.
In the case of `CC(C)(C)[Si](OC[C@H]1O[C@@H](n2ccc(NC(=O)c3ccccc3)nc2=O)C[C@@H]1O[C@@H]1O[C@H](COC(=O)c2ccccc2)[C@@H](OC(=O)c2ccccc2)[C@H]1OC(=O)c1ccccc1)(c1ccccc1)c1ccccc1` [Compound 37], the “Increase of efficiency of TDP1 inhibition by appending TBDPS at 5'-position” value is “about 1.6 times” and the IC50 was found to be 900 ± 100 nM.
Turning to `Nc1nc2c(ncn2[C@H]2C[C@H](O)[C@@H](CO[C@@H]3O[C@H](CO)[C@@H](O)[C@H]3O)O2)c(=O)[nH]1` [Compound 45], the “Inhibitory effect” value was “weak inhibitory effect”.
Turning to `CC(C)(C)[Si](OC[C@H]1O[C@@H](n2cc(I)c(=O)[nH]c2=O)C[C@@H]1O[C@@H]1O[C@H](COC(=O)c2ccccc2)[C@@H](OC(=O)c2ccccc2)[C@H]1OC(=O)c1ccccc1)(c1ccccc1)c1ccccc1` [Compound 42], the “Increase of efficiency of TDP1 inhibition by appending TBDPS at 5'-position” value is reported as “about 3.5 times” and the IC50 is 800 ± 100 nM.
For the molecule `Cc1cn([C@H]2C[C@H](O[C@@H]3O[C@H](CO)[C@@H](O)[C@H]3O)[C@@H](COP(=O)(O)O)O2)c(=O)[nH]c1=O.N.N` [Compound 26], the “Inhibitory effect” value was “does not lead to the noticeable inhibitory effect”.
Regarding `Nc1ccn([C@@H]2O[C@H](CO)[C@@H](O)[C@H]2O[C@@H]2O[C@H](CO)[C@@H](O)[C@H]2O)c(=O)n1` [Compound 12], the “Inhibitory effect” value is “not inhibited”.
The same measure, in the same setting: the same measure for `Cc1cn([C@H]2C[C@H](O)[C@@H](CO[C@@H]3O[C@H](CO)[C@@H](O)[C@H]3O)O2)c(=O)[nH]c1=O` [Compound 44]: “not inhibited”.
Consider `O=C(Nc1ccn([C@H]2C[C@H](O[C@@H]3O[C@H](COC(=O)c4ccccc4)[C@@H](OC(=O)c4ccccc4)[C@H]3OC(=O)c3ccccc3)[C@@H](CO)O2)c(=O)n1)c1ccccc1` [Compound 36], for which the IC50 is 1500 ± 200 nM.
Turning to `Nc1nc2c(ncn2[C@H]2C[C@H](O[C@@H]3O[C@H](CO)[C@@H](O)[C@H]3O)[C@@H](CO)O2)c(=O)[nH]1` [Compound 34], the “Inhibitory effect” value is on record as “not inhibited”.
Regarding `CC(C)[Si]1(C(C)C)OC[C@H]2O[C@@H](n3ccc(NC(=O)c4ccccc4)nc3=O)[C@H](O[C@@H]3O[C@H](COC(=O)c4ccccc4)[C@@H](OC(=O)c4ccccc4)[C@H]3OC(=O)c3ccccc3)[C@@H]2O[Si](C(C)C)(C(C)C)O1` [Compound 16], the IC50 worked out at 400 ± 100 nM.
In the case of `O=c1ccn([C@@H]2O[C@H](CO)[C@@H](O)[C@H]2O[C@@H]2O[C@H](CO)[C@@H](O)[C@H]2O)c(=O)[nH]1` [Compound 17], the “Inhibitory effect” value is listed as “not inhibited”.
On the same count and under the same terms, the same measure for `Cc1cn([C@H]2C[C@H](O[C@@H]3O[C@H](COP(=O)([O-])[O-])[C@@H](O)[C@H]3O)[C@@H](CO)O2)c(=O)[nH]c1=O.[Na+].[Na+]` [Compound 25]: “does not lead to the noticeable inhibitory effect”.
For `O=c1ccn([C@H]2C[C@H](O[C@@H]3O[C@H](CO)[C@@H](O)[C@H]3O)[C@@H](CO)O2)c(=O)[nH]1` [Compound 38], the “Inhibitory effect” value is “not inhibited”.
With `Nc1ccn([C@H]2C[C@H](O)[C@@H](CO[C@@H]3O[C@H](CO)[C@@H](O)[C@H]3O)O2)c(=O)n1` [Compound 46], the “Inhibitory effect” value is “not inhibited”.
With `Cc1cn([C@@H]2C[C@H](O[C@@H](C=O)O[C@@H](C=O)CO)[C@@H](CO)O2)c(=O)[nH]c1=O` [Compound 30], the “Inhibitory effect” value is reported as “did not lead to the noticeable inhibitory activity”.
Turning to `Nc1ncnc2c1ncn2[C@H]1C[C@H](O[C@@H]2O[C@H](CO)[C@@H](O)[C@H]2O)[C@@H](CO)O1` [Compound 22], the “Inhibitory effect” value is “not inhibited”.
